One series addresses CYP2D6 (Homo sapiens, UniProt P10635). The series can be described thus: in vitro. Conditions: human, microsomes. The method, then: (§1) Cytochrome P450 Inhibition Assay
(§2) Analyses were performed using standard LC/MS/MS protocols.

Another series deals with CYP3A4 (Homo sapiens, UniProt P08684). The series can be described thus: in vitro. As to conditions: human, microsomes. On the procedure:
as §1, §2

A further series addresses T1, CYP1A2 (Homo sapiens, UniProt P05177).
T1 sequence (P05177 1-516): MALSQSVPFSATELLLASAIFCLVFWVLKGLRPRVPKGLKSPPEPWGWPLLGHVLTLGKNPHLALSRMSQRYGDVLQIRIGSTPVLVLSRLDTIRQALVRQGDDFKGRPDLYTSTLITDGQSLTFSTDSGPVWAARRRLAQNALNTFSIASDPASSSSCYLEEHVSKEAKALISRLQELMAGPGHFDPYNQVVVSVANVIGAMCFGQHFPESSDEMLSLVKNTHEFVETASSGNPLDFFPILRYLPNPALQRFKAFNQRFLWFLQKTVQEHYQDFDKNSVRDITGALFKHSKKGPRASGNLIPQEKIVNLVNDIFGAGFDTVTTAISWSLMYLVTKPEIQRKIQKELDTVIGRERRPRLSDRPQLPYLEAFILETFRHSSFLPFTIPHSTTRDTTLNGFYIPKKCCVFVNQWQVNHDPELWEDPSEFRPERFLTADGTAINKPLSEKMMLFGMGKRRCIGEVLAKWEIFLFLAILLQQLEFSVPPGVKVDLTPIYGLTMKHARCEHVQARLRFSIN
The series can be described thus: in vitro. As to conditions: human, microsomes. The method, then:
as §1, §2

A further series deals with CYP2C9 (Homo sapiens, UniProt P11712). Description: in vitro. Conditions: human, microsomes. On the procedure: as §1, §2
CYP2C9, sequence (P11712 whole entry): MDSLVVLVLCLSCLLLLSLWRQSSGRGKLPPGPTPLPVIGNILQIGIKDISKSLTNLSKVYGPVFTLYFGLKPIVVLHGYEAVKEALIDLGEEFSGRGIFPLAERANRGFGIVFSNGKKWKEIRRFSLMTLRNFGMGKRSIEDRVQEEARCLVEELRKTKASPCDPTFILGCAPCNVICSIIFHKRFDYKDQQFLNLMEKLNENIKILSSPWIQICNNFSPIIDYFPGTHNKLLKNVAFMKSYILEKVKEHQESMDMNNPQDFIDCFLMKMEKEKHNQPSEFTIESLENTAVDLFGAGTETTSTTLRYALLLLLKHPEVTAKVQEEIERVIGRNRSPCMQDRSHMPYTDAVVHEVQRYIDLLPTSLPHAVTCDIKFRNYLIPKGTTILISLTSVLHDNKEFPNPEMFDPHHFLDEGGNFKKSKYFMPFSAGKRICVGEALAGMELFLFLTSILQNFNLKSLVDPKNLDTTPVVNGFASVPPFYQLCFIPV
A short description of another series: Aqueous solubility assay. It counts as physicochemical. As to conditions: PBS pH 7.4, 4 h, room temperature; for Determined concentration Mean: mean of 3, maximal concentration evaluated 200, 500 or 1000 μM; for Determined concentration Rep 1: replicate 1; for Determined concentration Rep 2: replicate 2; for Determined concentration Rep 3: replicate 3. The method, then:
Solutions were incubated for four hours at room temperature and stirred at 600 rpm and run in triplicate. Centrifugation was performed for 15 minutes at 6000 rpm and solution concentration was determined using HPLC-UV (photodiode array detector acquiring between 220 nm, and 300 nm wavelengths).

Another series concerns the target T2, integrin α4β7 (Homo sapiens, UniProt P13612+P26010).
T2 sequence (P13612 34-977 limits assumed): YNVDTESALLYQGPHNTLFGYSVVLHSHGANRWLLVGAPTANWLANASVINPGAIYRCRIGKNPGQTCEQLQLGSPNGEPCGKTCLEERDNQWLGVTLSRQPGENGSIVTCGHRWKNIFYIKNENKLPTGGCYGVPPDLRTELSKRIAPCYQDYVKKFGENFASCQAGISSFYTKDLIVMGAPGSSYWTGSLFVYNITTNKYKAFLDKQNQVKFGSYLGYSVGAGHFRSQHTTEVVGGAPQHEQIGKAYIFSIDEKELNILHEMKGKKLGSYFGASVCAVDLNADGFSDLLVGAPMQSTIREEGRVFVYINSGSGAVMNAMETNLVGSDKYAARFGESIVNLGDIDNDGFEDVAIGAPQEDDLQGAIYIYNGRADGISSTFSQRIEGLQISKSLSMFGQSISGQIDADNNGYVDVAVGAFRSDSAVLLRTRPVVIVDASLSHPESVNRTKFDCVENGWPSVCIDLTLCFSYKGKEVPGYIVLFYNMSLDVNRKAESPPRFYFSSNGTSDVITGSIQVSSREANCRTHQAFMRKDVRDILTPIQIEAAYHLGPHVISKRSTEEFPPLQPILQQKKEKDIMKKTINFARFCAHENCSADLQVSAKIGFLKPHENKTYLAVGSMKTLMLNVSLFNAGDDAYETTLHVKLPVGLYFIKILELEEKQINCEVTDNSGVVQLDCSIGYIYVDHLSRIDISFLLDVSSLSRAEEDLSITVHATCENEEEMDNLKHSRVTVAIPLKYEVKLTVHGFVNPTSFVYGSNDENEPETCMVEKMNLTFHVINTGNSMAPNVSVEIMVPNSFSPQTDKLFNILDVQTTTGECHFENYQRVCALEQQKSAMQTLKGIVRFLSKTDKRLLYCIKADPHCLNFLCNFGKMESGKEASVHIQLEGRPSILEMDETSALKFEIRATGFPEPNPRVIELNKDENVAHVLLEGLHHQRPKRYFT
T2 sequence (P26010 20-723 limits assumed): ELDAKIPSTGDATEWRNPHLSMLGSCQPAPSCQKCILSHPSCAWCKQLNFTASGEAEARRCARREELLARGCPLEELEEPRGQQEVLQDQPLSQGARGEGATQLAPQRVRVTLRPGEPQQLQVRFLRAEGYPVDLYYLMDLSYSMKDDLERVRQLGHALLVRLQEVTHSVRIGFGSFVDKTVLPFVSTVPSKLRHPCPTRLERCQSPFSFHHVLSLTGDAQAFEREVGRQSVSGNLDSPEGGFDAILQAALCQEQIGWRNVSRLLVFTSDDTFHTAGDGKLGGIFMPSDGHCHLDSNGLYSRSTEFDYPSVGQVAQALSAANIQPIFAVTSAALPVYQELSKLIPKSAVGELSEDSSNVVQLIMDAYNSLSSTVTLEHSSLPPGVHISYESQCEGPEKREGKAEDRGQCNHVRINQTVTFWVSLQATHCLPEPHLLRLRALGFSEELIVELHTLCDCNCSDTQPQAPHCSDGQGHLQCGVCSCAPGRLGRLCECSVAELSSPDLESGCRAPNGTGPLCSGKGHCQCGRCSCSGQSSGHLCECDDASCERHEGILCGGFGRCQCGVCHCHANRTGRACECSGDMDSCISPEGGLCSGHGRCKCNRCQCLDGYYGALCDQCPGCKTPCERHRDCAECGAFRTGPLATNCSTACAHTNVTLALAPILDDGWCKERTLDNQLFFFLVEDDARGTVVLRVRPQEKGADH
The series can be described thus: Integrin α4β7—MAdCAM-1 competition assay (ELISA). As to conditions: ratio a4b1 ELISA IC50 / a4b7 ELISA IC50. The class given is binding. The method in brief:
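Competitive ELISA in which serially diluted compound was incubated with the receptor system for 2 h at room temperature to equilibrium. Wash buffer contained 1 mM MnCl2. Bound Fc-tagged partner was detected with anti-human IgG Fc-HRP and TMB.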
(In general: ELISA stands for enzyme-linked immunosorbent assay.)

The nature of series [1]: Plasma protein binding, equilibrium dialysis, mouse plasma. Conditions: for fraction unbound at 5 h, 1 microM: 50% plasma. In general terms: Equilibrium dialysis compares concentrations on both sides of a semipermeable membrane.
Method: (§3) An equilibrium dialysis (HTDialysis) method was used employing 50% plasma collected from CD-1 mice or Sprague-Dawley rats and incubated with K2EDTA. Test articles were assessed at 1 microM concentration in three replicates. Incubation time as 5 hours and plasma and buffer standards were assessed using LC/MS/MS. Percentage recovery was calculated as (Cbuffer+Cplasma)/[average]Cinitial, [average]Cinitial being measured in triplicate from the test samples prior to dialysis. Percentage of compound unbound was calculated as Cbuffer/Cplasma.
The nature of series [2]: Plasma protein binding, equilibrium dialysis, rat plasma. Conditions: for fraction unbound at 5 h, 1 microM: 50% plasma.
Method: as §3
Assay in series [3]: not given
This is another data set of the same source.

Setting [4] is: CD-1, mouse, % unbound (Cbuffer/Cplasma) Mouse plasma 1, replicate 1, 1 microM, 5 h.
Where [5] appears, read: CD-1, mouse, % unbound (Cbuffer/Cplasma) Mouse plasma 2, replicate 2, 1 microM, 5 h.
[6] abbreviates: CD-1, mouse, % unbound (Cbuffer/Cplasma) Mouse plasma 3, replicate 3, 1 microM, 5 h.
Where [7] appears, read: CD-1, mouse, % unbound (Cbuffer/Cplasma) Mouse plasma Average, average of 3 replicates.
[8] abbreviates: Sprague-Dawley, rat, % unbound (Cbuffer/Cplasma) Rat plasma 1, replicate 1, 1 microM, 5 h.
Setting [9] is: Sprague-Dawley, rat, % unbound (Cbuffer/Cplasma) Rat plasma 2, replicate 2, 1 microM, 5 h.
[10] abbreviates: Sprague-Dawley, rat, % unbound (Cbuffer/Cplasma) Rat plasma 3, replicate 3, 1 microM, 5 h.
Setting [11] is: Sprague-Dawley, rat, % unbound (Cbuffer/Cplasma) Rat plasma Average, average of 3 replicates.

The structures appear in SMILES notation.

Nine molecules from US11072616B2, “Cyclic peptides targeting alpha-4-beta-7 integrin” (Zealand Pharma A/S, priority 2015, dated 2021) can be followed below.

CYP2D6, sequence (P10635 whole entry): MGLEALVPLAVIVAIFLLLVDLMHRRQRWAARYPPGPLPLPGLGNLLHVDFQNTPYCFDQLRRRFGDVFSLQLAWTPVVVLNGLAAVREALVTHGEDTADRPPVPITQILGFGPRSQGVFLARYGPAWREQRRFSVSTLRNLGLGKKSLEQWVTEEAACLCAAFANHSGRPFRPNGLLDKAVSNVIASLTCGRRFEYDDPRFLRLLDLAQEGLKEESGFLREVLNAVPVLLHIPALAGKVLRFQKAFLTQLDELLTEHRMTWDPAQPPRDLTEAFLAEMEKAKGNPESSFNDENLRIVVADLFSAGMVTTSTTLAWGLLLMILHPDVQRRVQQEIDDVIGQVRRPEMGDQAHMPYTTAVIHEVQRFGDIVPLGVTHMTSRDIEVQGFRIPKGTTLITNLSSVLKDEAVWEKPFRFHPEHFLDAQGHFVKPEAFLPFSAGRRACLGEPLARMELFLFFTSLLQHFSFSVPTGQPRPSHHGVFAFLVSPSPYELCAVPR
CYP3A4, sequence (P08684 whole entry): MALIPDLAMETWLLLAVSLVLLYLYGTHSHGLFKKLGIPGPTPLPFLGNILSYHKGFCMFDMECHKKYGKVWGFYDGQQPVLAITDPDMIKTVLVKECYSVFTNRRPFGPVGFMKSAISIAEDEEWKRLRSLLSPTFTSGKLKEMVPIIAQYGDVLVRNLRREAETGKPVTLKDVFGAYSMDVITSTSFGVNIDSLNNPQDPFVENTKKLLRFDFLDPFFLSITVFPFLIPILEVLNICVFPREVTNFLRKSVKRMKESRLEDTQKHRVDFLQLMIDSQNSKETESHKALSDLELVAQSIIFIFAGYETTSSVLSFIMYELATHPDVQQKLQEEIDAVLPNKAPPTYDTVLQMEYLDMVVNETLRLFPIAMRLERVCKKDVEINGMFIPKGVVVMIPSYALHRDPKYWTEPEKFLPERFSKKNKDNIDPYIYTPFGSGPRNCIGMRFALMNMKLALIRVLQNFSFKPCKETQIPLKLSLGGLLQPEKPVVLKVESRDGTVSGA

The IC50 is the midpoint of a concentration-inhibition curve. Low values mean higher potency, high ones lower potency. With `CC(C)C[C@H]1C(=O)N[C@@H](C(C)C)C(=O)N[C@@H](Cc2ccccc2)C(=O)N[C@@H](C)[C@@H](C(=O)NC(C)(C)C)N2CCC[C@H]2C(=O)N[C@@H]([C@@H](C)O)C(=O)N1C` [ET00328-01], the IC50 was > 15 µM on CYP2D6, 9.7 µM on CYP3A4, > 15 µM against CYP1A2 and > 15 µM against CYP2C9.

In the case of `Clc1ccc(COC(Cn2ccnc2)c2ccc(Cl)cc2Cl)c(Cl)c1` (stereo not drawn) [Miconazole, reference compound], the concentration for half-maximal inhibition (IC50) at CYP2C9 turned out to be 0.32 µM. That is a sub-micromolar value.

`CC[C@H](C)[C@@H]1NC(=O)[C@H](CCO)NC(=O)[C@H](CC(C)C)NC(=O)[C@H](Cc2ccc3ccccc3c2)NC(=O)[C@@H]2CCCN2[C@H](C(=O)NC(C)(C)C)[C@H](C)NC1=O` [ET01842-01]: the half-inhibitory concentration (IC50) is > 15 µM against CYP2D6, 0.89 µM at CYP3A4, > 15 µM against CYP1A2 and > 15 µM against CYP2C9.

Consider `CC(C)C[C@@H]1NC(=O)C2(CCCC2)NC(=O)[C@@H]2CCCN2[C@H](C(=O)NC(C)(C)C)[C@H](C)NC(=O)[C@H]([C@@H](C)O)NC(=O)[C@H](CC(=O)O)NC1=O` [UM0132368-01], for which, in “Aqueous solubility assay”, the “Determined concentration Mean” value was 926.3 µM, the “Determined concentration Rep 1” value worked out at 926.3 µM, the “Determined concentration Rep 2” value worked out at 917.9 µM and the “Determined concentration Rep 3” value was 934.3 µM. The “Selectivity ELISA” value on integrin α4β7 came to 14.9.

One may read the fraction unbound as free concentration divided by total concentration. High values mean weak binding, low ones extensive binding. Turning to `CC(C)NCC(O)COc1cccc2ccccc12` (stereo not drawn) [Propranolol, reference compound], the recovery at 5 h, 1 microM was determined as 93% in [1] (CD-1, mouse, 50% plasma (K2EDTA)) and 79% in [2] (Sprague-Dawley, rat, 50% plasma (K2EDTA)). Moreover, the fraction unbound at 5 h, 1 microM in [1] (setting [4]) is 0.229; in series [1] (setting [5]), 0.201; in [1] (setting [6]) it was 0.201; in [1] (setting [7]), 0.21; in series [1] (CD-1, mouse, free fraction (% unbound), mouse plasma), ~0.21; in series [2] (setting [8]) it was 0.146. The unbound share (fraction unbound) at 5 h, 1 microM was 0.147 in series [2] (setting [9]); 0.147 in [2] (setting [10]); 0.147 in series [2] (setting [11]); ~0.15 in series [2] (Sprague-Dawley, rat, free fraction (% unbound), rat plasma).

Take `CC[C@H](C)[C@@H]1NC(=O)[C@H](CC(=O)O)NC(=O)[C@H](CC(C)C)NC(=O)[C@H](Cc2ccc3ccccc3c2)NC(=O)[C@@H]2CCCN2[C@H](C(=O)NC(C)(C)C)[C@H](C)NC1=O` [ET01827]: the “% unbound (Cbuffer/Cplasma) Rat plasma 1” value came out at 16.2%, the “% unbound (Cbuffer/Cplasma) Rat plasma 2” value came to 17.4% and the “% unbound (Cbuffer/Cplasma) Rat plasma Average” value was 15.7%. Moreover, in series [1], the “Control buffer/Buffer at 0.1 uM Cdonor/Creceiver” value amounted to 86%. In addition, the “% recovery” value in series [1] (mouse plasma dialysis) came to 103%. For the same molecule, the “% recovery” value in [2] (rat plasma dialysis) is given as 143%. In [3], the “% unbound (Cbuffer/Cplasma) Mouse plasma 3” value is recorded as 9.3% and the “% unbound (Cbuffer/Cplasma) Mouse plasma Average” value is on record as 9.5%.

Turning to `CC(C)C[C@@H]1NC(=O)C2(Cc3ccccc3C2)NC(=O)[C@@H]2CCCN2[C@H](C(=O)NC(C)(C)C)[C@H](C)NC(=O)[C@H]([C@@H](C)O)NC(=O)[C@H](CC(=O)O)NC1=O` [UM0132369-01], in “Aqueous solubility assay”, the “Determined concentration Mean” value was determined as 882.5 µM, the “Determined concentration Rep 1” value was 874.4 µM, the “Determined concentration Rep 2” value came out at 885.9 µM and the “Determined concentration Rep 3” value came to 887.3 µM. Further, the “Selectivity ELISA” value at integrin α4β7 stood at 14.4.

In the case of `CC(C)C[C@@H]1NC(=O)[C@H](Cc2c[nH]c3ccccc23)NC(=O)[C@@H]2CCCN2[C@H](C(=O)NC(C)(C)C)[C@H](C)NC(=O)[C@H]([C@@H](C)O)NC(=O)[C@H](CC(=O)O)NC1=O` [ET00762], the half-inhibitory concentration (IC50) on CYP2D6, at CYP3A4, against CYP1A2 and on CYP2C9 was > 15 µM in each case. Also, the recovery at 5 hours, 1 microM was found to be 150% in [1] (CD-1, mouse) and 94% in series [2] (Sprague-Dawley, rat). Further, the free fraction (fraction unbound) at 5 h, 1 microM in series [1] (setting [4]) is 0.806; in series [1] (setting [5]), 0.744; in series [1] (setting [6]), 0.757; in [1] (setting [7]), 0.769; in series [2] (setting [8]), 0.833; in series [2] (setting [9]), 0.761. The unbound share (fraction unbound) at 5 h, 1 microM was 0.702 in series [2] (setting [10]) and 0.765 in [2] (setting [11]). In addition, the “Control buffer/Buffer at 0.1 uM Cdonor/Creceiver” value in series [1] is recorded as 79%. Besides, the recovery at 5 hours, 0.1 uM in [1] (buffer/buffer equilibrium dialysis control (HTDialysis)) was 99%.

For the molecule `CC(C)C[C@@H]1NC(=O)c2cccc(c2)CNC(=O)[C@@H]2CCCN2[C@H](C(=O)NC(C)(C)C)[C@H](C)NC(=O)[C@H]([C@@H](C)O)NC(=O)[C@H](CC(=O)O)NC1=O` [UM0134690-01], in “Aqueous solubility assay”, the “Determined concentration Mean” value was 942.9 µM, the “Determined concentration Rep 1” value was found to be 957.3 µM, the “Determined concentration Rep 2” value came out at 950.5 µM and the “Determined concentration Rep 3” value was 920.8 µM. Further, the “Selectivity ELISA” value on integrin α4β7 worked out at 8.7.
